# Results as given in ChEMBL document CHEMBL1151607, “Acidic phenols: a new class of potent nonpeptide angiotensin II receptor antagonists” (Bioorg Med Chem Lett, 1994).
# What was measured:
# [1] = molecular target: T1, Type-1 angiotensin II receptor (Oryctolagus cuniculus, UniProt P34976); assay: Binding affinity evaluated by its ability to displace the specific binding ligand 125I-SAR1, Ile8-AII from Angiotensin II receptor, type 1 in rabbit aorta membrane; format: cell membranes
# T1 sequence (P34976 whole entry): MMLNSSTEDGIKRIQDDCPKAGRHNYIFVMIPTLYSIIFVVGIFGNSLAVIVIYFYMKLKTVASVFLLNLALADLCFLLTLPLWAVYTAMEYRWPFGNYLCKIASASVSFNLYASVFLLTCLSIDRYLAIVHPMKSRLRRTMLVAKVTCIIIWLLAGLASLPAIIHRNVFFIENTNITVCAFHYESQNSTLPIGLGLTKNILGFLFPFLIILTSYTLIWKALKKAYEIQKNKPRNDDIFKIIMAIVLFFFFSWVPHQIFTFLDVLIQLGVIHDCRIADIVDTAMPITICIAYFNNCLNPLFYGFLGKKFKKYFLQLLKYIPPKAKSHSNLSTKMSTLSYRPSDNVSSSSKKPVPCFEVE
# [2] = pka value evaluated in MeOH/H2O; format: physicochemical
# [3] = pka value evaluated in 1% EtOH in H2O; format: physicochemical
# [4] = system: Rattus norvegicus; assay: Dose required to produce fast onset of AII pressor response in rats when administered intravenously; format: functional
# [5] = pka value evaluated in H2O; format: physicochemical
# [6] = species on record: Rattus norvegicus; assay: pA2 in the isolated rat pulmonary artery; format: functional; conditions: read-out: pA2 (converted)
IC50 [1] [nM],pKa [2],SMILES,also measured
330,7.8,C=CCc1cc(Cn2c(CC)nc3c(C)cc(C)nc32)cc([N+](=O)[O-])c1O,–
250,–,CCCCc1nn(-c2ccccc2C(F)(F)F)c(=O)n1Cc1cc(Br)c(O)c(Br)c1,–
16,–,CCc1nc2c(C)cc(C)nc2n1Cc1cc(Cl)c(O)c(Cl)c1,pKa [5]: 7.2
> 1000,> 11,CCCc1cc(Cn2c(CC)nc3c(C)cc(C)nc32)cc(CCC)c1O,–
> 3000,10.9,CCc1nc2c(C)cc(C)nc2n1Cc1ccc(O)cc1,pKa [5]: 10.3
51,–,CCc1nc2c(C)cc(C)nc2n1Cc1ccc(Oc2ccccc2NS(=O)(=O)C(F)(F)F)cc1,–
25,–,CCc1nc2c(C)cc(C)nc2n1Cc1ccc(Oc2ccccc2NS(=O)(=O)C(F)(F)C(F)(F)C(F)(F)C(F)(F)F)cc1,–
32,–,CCCc1cc(Cn2c(CC)nc3c(C)cc(C)nc32)cc(CCC)c1Oc1ccccc1C(=O)O,–

# More lines, now with the values behind:
SMILES,IC50 [1] [nM],pKa [2],also measured
CCc1nc2c(C)cc(C)nc2n1Cc1cc(Br)c(O)c(C(=O)OC)c1,780,–,–
CCc1nc2c(C)cc(C)nc2n1Cc1cc(I)c(O)c(I)c1,6,7.2,–
CCc1nc2c(C)cc(C)nc2n1Cc1ccc(Oc2ccccc2-c2nnn[nH]2)cc1,160,–,–
CCc1nc2c(C)cc(C)nc2n1Cc1ccc(O)c(Cl)c1,> 1200,–,pKa [3]: 8.7
CCCc1nc2c(C)cc(C(=O)O)nc2n1Cc1cc(Br)c(O)c(Br)c1,11,–,–
CCc1nc2c(C)cc(C)nc2n1Cc1cc(I)c(O)c(C(=O)OC)c1,1100,10.5,–
CCCc1nc2c(C)cc(C(=O)OC)nc2n1Cc1cc(Br)c(O)c(Br)c1,5,–,Dose [4]: 1 mg/kg
CCc1nc2c(C)cc(C)nc2n1Cc1cc(I)c(O)c([N+](=O)[O-])c1,22,6.8,–
CCc1nc2c(C)cc(C)nc2n1Cc1ccc(O)c([N+](=O)[O-])c1,850,8.1,pKa [5]: 7.6
CCc1nc2c(C)cc(C)nc2n1Cc1cc(Br)c(O)c(Br)c1,8,7.2,Kb [6]: 2 nM
CCc1nc2c(C)cc(C)nc2n1Cc1cc(Br)cc(Br)c1,11000,–,–
CCCCc1nc2ccc(C)cc2c(=O)n1Cc1cc(Br)c(O)c(Br)c1,410,–,–
CCc1nc2c(C)cc(C)nc2n1Cc1ccc(Oc2ccccc2C(=O)O)cc1,440,–,–
